The values that follow come from PubChem BioAssay (NCI).

Holding throughout (assay): inhibition of tumour cell growth, NCI panel, 48 h
Experiment [1] concerns MDA-N.
The test system of experiment [2] is PC-3 prostate.
Experiment [3] has as its system HOP-18 NSCLC.
Experiment [4] deals with XF 498 CNS.
The test system of experiment [5] is SNB-78 CNS.
Experiment [6] concerns KM20L2 colon.
Experiment [7] relates to RXF-631 renal.

SMILES strings stand for the structures. Values joined by “and” are separate entries in the source; they are usually repeats but may differ in a detail not shown here. Equal entries are not always repeated.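 These data come from cells grown in 96-well plates and exposed to compound for 48 hours at five concentrations. GI50 is the concentration that inhibits growth by half. The concentration for full growth arrest is given as TGI.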 Where a SMILES comes first, the peptide text is derived from it. [ ]: non-standard residue; d: D form. The star is where a group is joined. Bn2Val = CC(C)[C@@H](C(=O)*)N(Cc1ccccc1)Cc1ccccc1; NH(3,4-diMeO-benzyl) = COc1ccc(CN*)cc1OC; NMeV = CN[C@H](C(=O)O)C(C)C; dNMeA = CN[C@H](C)C(=O)O

Consider `CC(=O)/C(=C/n1c(=S)sc2ccccc21)C(=O)Nc1ccccc1C`, for which, in experiment [1], the TGI is above 100 µM.
With `Fc1ccc(-c2nn(-c3ccccc3)cc2-c2nc3ccccc3o2)cc1`, in experiment [2], the GI50 was 0.491 µM and the TGI is above 100 µM.
`O=C1c2ccccc2-c2c1c1cc3c(cc1c(=O)n2CCCCl)OCO3`: in experiment [2], the GI50 is 42.7 µM and the TGI is above 100 µM.
For the molecule `C1CN2N3CCCC23C1` (configuration not stated), the TGI in experiment [3], in experiment [4], in experiment [5] and in experiment [6] was above 100 µM in each case.
Turning to `Cc1cccc(C(C)(C)C)c1NC(=O)C(=O)Cc1nc2ccccc2s1`, the TGI in experiment [7], in experiment [3], in experiment [5] and in experiment [6] was above 100 µM throughout.
For `Cn1c(-c2nonc2N)nc2cnccc21`, in experiment [2], the GI50 is above 25 µM and the TGI was above 25 µM.
With `Cn1cc(C2=C(c3ccc(OC[C@@H](O)CO)cc3)C(=O)NC2=O)c2ccccc21`, in experiment [2], the GI50 is above 25 µM and the TGI is above 25 µM.
As to `COC(=O)C(CC(=O)c1cc2c(cc1I)OCO2)Cc1cc(OC)c(OC)c(OC)c1I` (configuration not stated), the TGI in experiment [3], in experiment [4] and in experiment [6] was above 100 µM each time.
As for `O=[N+]([O-])C(=C(Sc1ccccc1)Sc1ccccc1)C(Cl)=C(Cl)Cl`, the results for the TGI in experiment [1] and in experiment [2] were 0.675 µM and 5.78 µM, respectively.
In the case of `O=C(O)c1cc(S(=O)(=O)N=NC=C2c3ccccc3N(O)c3ccccc32)ccc1O`, the TGI in experiment [3] amounted to 85.4 µM; in experiment [5], 96.5 µM; in experiment [6], 63.6 µM.
As for `N#Cc1cnn2ccn(C3OC(COC(=O)c4ccccc4)C(OC(=O)c4ccccc4)C3OC(=O)c3ccccc3)c12` (configuration not stated), the TGI in experiment [1] was above 21.5 µM; in experiment [2], 21.5 µM.
Turning to `COC(=O)[C@@H](C)C[C@H](Cc1ccccc1)NC(=O)c1nc([C@@H](C[C@H](C(C)C)N(C)C(=O)[C@@H](NC(=O)[C@H]2CCCN2C)C(C)C)OC(C)=O)sc1C`, in experiment [2], the GI50 was below 0.0025 µM and the TGI was above 25 µM.
With `CC(=O)OCC1OC(n2c(=S)[nH]c(-c3ccccc3)c(C#N)c2=O)C(OC(C)=O)C(OC(C)=O)C1OC(C)=O` (configuration not stated), the TGI in experiment [1] and in experiment [2] was above 100 µM each time.
`COc1ccc(/C=C(/C(=O)O)c2cc(OC)c(OC)c(OC)c2)cc1`: the TGI in experiment [7] was above 100 µM; in experiment [5], above 100 µM; in experiment [6], 98.2 µM.
Turning to `CC(=O)CC(=O)c1cc2c(=O)oc(C)cc2oc1=O`, the TGI in experiment [1] and in experiment [2] was above 37.5 µM in each case.
Turning to `O=C(O)Cc1c[nH]c2ccc(F)cc12`, the TGI in experiment [1] and in experiment [2] was above 100 µM each time.
`CCCCCCCCCCCCCCC1OC(=O)c2ccccc21` (configuration not stated): the TGI in experiment [7], in experiment [3], in experiment [5] and in experiment [6] was above 100 µM throughout.
Molecule `CCCNC(=O)OCc1c(COC(=O)NCCC)c(-c2ccc(Cl)c(Cl)c2)n2c1CCC2` registered a TGI in experiment [2] of 28.4 µM.
As to `CCOC(=O)c1c(N)n(-c2ccccc2)c(=S)n(-c2ccccc2)c1=O`, in experiment [1], the TGI is above 100 µM.
Regarding `Cc1c(N2C(=O)/C(=C\c3ccccc3O)N=C2c2ccccc2)c(=O)n(-c2ccccc2)n1C`, in experiment [2], the GI50 is above 100 µM and the TGI is above 100 µM.
For the molecule `N#Cc1nc(-c2ccc(F)cc2)oc1S(=O)(=O)N1CCOCC1`, in experiment [2], the GI50 was 11.6 µM and the TGI turned out to be 26.9 µM.
Take `O=C1Oc2cc3c(c4cccc1c24)OCN(c1ccc(Cl)cc1)C3`: the TGI in experiment [3] was 91.5 µM; in experiment [4] it was 45.6 µM; in experiment [5], above 100 µM; in experiment [6], above 100 µM.
`O=S(=O)(O)C(O)/C=C/c1ccccc1` (configuration not stated): the TGI in experiment [3] and in experiment [6] was above 100 µM each time.
Take `CC(C)(C)C1=NC(S)NC(CCC(=O)Nc2ccccc2[N+](=O)[O-])=C1` (configuration not stated): the TGI in experiment [7], in experiment [3], in experiment [5] and in experiment [6] was above 100 µM each time.
In experiment [2], `COc1ccc(NC2Oc3cc4c(cc3C(c3cc(OC)c(OC)c(OC)c3)C2C)OCO4)cc1` (configuration not stated) returned a TGI above 100 µM.
For the molecule `O=C(/C=C(\[O-])c1ccccc1)CCCCCCC(=O)/C=C(\[O-])c1ccccc1.O=C(/C=C(\[O-])c1ccccc1)CCCCCCC(=O)/C=C(\[O-])c1ccccc1.O=C(/C=C(\[O-])c1ccccc1)CCCCCCC(=O)/C=C(\[O-])c1ccccc1.[La+3].[La+3]`, in experiment [6], the GI50 was above 50 µM and the TGI is above 50 µM.
Regarding `S=C1NCCN1C1=Nc2ccccc2CO1`, in experiment [2], the GI50 is above 100 µM and the TGI was above 100 µM.
For `OCCNCO`, the TGI in experiment [4], in experiment [5] and in experiment [6] was above 100 µM each time.
As to `C[C@@H]1Cc2c([nH]c3ccccc23)[C@@H](c2c(F)cc(/C=C/C(=O)O)cc2F)N1CC(C)(C)F`, in experiment [2], the GI50 is 10.2 µM and the TGI worked out at 27.4 µM.
Regarding `COc1ccc(CNC(=O)[C@@H](C)N(C)C(=O)[C@@H]2CCCN2C(=O)[C@H](C(C)C)N(C)C(=O)[C@@H](NC(=O)[C@H](C(C)C)N(Cc2ccccc2)Cc2ccccc2)C(C)C)cc1OC` (Bn2Val-V[NMeV]P[dNMeA]-{NH(3,4-diMeO-benzyl)}), the GI50 in experiment [1] was 11.7 µM; in experiment [2], 5.61 µM. For the same molecule, the TGI in experiment [1] is 20.2 µM and 24.9 µM; in experiment [2], 26 µM and 24.5 µM.
For the molecule `COC(=O)c1c(OC)cccc1C(=O)O`, the TGI in experiment [7], in experiment [3], in experiment [5] and in experiment [6] was above 100 µM throughout.
With `CC(=O)c1ccc(N(/C=C/C(=O)C(F)(F)F)CC(=O)c2ccc(Cl)c(Cl)c2)cc1`, in experiment [2], the GI50 is 11.5 µM and the TGI was 30.2 µM.
For the molecule `CNC(=O)c1cc(Oc2ccc3c(c2)sc2nc(-c4ccc(N)cc4)cn23)ccn1`, in experiment [2], the GI50 is 0.324 µM and the TGI is above 100 µM.
Turning to `Cc1c(Cl)cccc1Nc1ncccc1C(=O)O`, in experiment [2], the GI50 was 52.3 µM and the TGI was above 100 µM.
